Measured values taken from patent EP0984967B1, “NAPHTHYRIDINE DERIVATIVES AND THEIR ANALOGUES INHIBITING CYTOMEGALOVIRUS” (BIOCHEM PHARMA INC, priority 1996, dated 1997).
Values after ≈ are worked out from the molar mass of the structure shown.

Experiments:
HCMV virus = assay: CMV plaque reduction assay; format: cell-based
Procedure: The anti-CMV activity of test compounds was evaluated in a plaque reduction assay as follows: In 12-well tissue culture dishes, 1.5X10E5 or Hs68 cells (human […] fibroblast cell line) were plated per well with 2 ml of DMEM 10% fetal bovine serum and incubated in 5% CO2/air at 37°C overnight or until cells were ready. The medium was then removed and the cells inoculated with 0.5 ml (containing 200 pfu/ml diluted in DMEM 2% FBS) of HCMV virus in each well. After adsorption at 37°C for 2 hours, the virus was removed and cell monolayers were overlaid (1ml) with DMEM 2% FBS containing test compounds at various concentrations. The cells were then incubated at 37°C for 8 days, and then fixed with one volume (1ml) of formaldehyde 8%/water or PBS 1X for 30 minutes. The formaldehyde solution was removed and the cell monolayers were stained with crystal violet 2%/EtOH 20% for a few seconds and then rinsed with water. Monolayers were examined for the presence of plaques under a microscope, the percentage of plaque reduction determined for each compound by comparison with the untreated cells (no test compound) and the 50% inhibitory concentration (IC50) established. Ganciclovir was used as a positive control. Note: DMEM medium contained 1% glutamine and 1% pen/strep

[1] = Cytotoxicity assay ([3H]-methyl thymidine incorporation, cell proliferation); format: cell-based; settings: vero-34, hs-68 or wi-38; for CC50 at 48 h: 50% inhibitory concentration of cell proliferation, 48 hours with compound then 18 hours [3H]-methyl thymidine, cell line not given
Procedure: The cytotoxicity of test compounds was evaluated according to the following procedure: Flat bottom 96 well plates were plated with 5X10E3 Vero-34 cells/well and 1X10E4 Hs-68 or Wi-38 cells/well respectively and incubated overnight at 37°C and 5% CO2/air. After incubation, the supernatant medium was removed and replaced with test compound dilutions in 2% DMEM (150ul). The cells were then incubated 48 hours in a 5% CO2 incubator at 37°C. […] Cells were then collected onto a fiberglass filter (Printed Filtermat A 1450-421 Wallac) with a Tomtec cell harvester. Suspended cells were collected directly onto filter while for adherent cells, the medium was first removed, then the cells washed with PBS and trypsinized for 2-3 minutes (50µl trypsin/well) before collecting. Filters were dried for 1 hour at 37-40°C and then placed into bags (1450-microbeta # 1450-432 Wallac) with 4.5ml of Betascint and counts obtained with Microbeta 1450 Wallac (protocol 1). The percent of cell proliferation was determined by comparison to the control (no test compound) and thereby establishing 50% inhibitory concentration is established.

[2] = Human betaherpesvirus 5, 192 h, plaque reduction, HCMV in Hs68 cells (human foreskin fibroblast cell line), 8 days at 37°C

| SMILES | IC50 (HCMV virus; [2]) [mg/L] | CC50 at 48 h [1] [mg/L] | IC50 (HCMV virus; Human betaherpesvirus 5, positive control tested in tandem with the compounds, plaque reduction assay) [mg/L] | CC50 ([1]; positive control tested in tandem with the compounds, value varied between runs) [mg/L] |
| --- | --- | --- | --- | --- |
| O=C(NCc1ccccc1O)c1ccc2cnccc2n1 [compound #22, N-(2-hydroxybenzyl)-2-(1,6)naphthyridinecarboxamide] | < 5 | 25 to 100 (≈ 89.5 to 358 µM) |  |  |
| O=C(NCc1ccccn1)c1ccc2cnccc2n1 [compound #18, [1,6]naphthyridine-2-carboxylic acid (pyridine-2-ylmethyl) amide] | 5 to 25 (≈ 18.9 to 94.6 µM) | > 100 |  |  |
| Nc1nc(O)c2ncn(COC(CO)CO)c2n1 [ganciclovir, reference compound] |  |  | 0.1 to 0.5 (≈ 0.392 to 1.96 µM) | 10 to 200 (≈ 39.2 to 784 µM) |
| O=C(NCc1cccc(Br)c1)c1ccc2cnccc2n1 [compound #6, N-(3-bromobenzyl)-2-(1,6)naphthyridinecarboxamide] | 1 to 5 (≈ 2.92 to 14.6 µM) | ~50 (≈ 146 µM) |  |  |
| C[C@H](NC(=O)Nc1ccc2cnccc2n1)c1ccccc1 [compound #50, 1-[(S)-α-methylbenzyl]-3-[1,6]naphthyridin-2-yl-urea] | 1 to 10 (≈ 3.42 to 34.2 µM) | 12.5 to 25 (≈ 42.8 to 85.5 µM) |  |  |
| O=C(c1ccc2cnccc2n1)N1CCc2ccccc2C1 [compound #20, (3,4-dihydro-1h-isoquinolin-2-yl)-[1,6]naphthyridin-2-yl-methanone] | 5 to 25 (≈ 17.3 to 86.4 µM) | > 100 |  |  |
| Cl.NCCCCNC(=O)Nc1ccc2cnccc2n1 [compound #49, 1-(4-aminobutyl)-3-[1,6]naphthyridin-2-yl-urea hydrochloride] | 1 to 5 | 6.25 to 12.5 |  |  |
| COc1cccc(CNC(=S)c2ccc3cnccc3n2)c1 [compound #41, [1,6]Naphthyridine-2-thiocarboxylic acid-3-methoxybenzylamine] | 1 to 10 (≈ 3.23 to 32.3 µM) | 25 to 50 (≈ 80.8 to 162 µM) |  |  |
| O=C(NCc1ccccc1Cl)c1ccc2cnccc2n1 [compound #4, N-(2-chlorobenzyl)-2-(1,6)naphthyridinecarboxamide] | 0.5 to 1 (≈ 1.68 to 3.36 µM) | ~100 (≈ 336 µM) |  |  |
| O=C(NCc1ccccc1)c1ccc2cnccc2n1 [compound #2, N-benzyl-2-(1,6)naphthyridinecarboxamide] | ~1 (≈ 3.8 µM) | ~50 (≈ 190 µM) |  |  |
| C[C@@H](NC(=O)Nc1ccc2cnccc2n1)c1ccccc1 [compound #51, 1-[(R)-α-methylbenzyl]-3-[1,6]naphthyridin-2-yl-urea] | 0.01 to 0.1 (≈ 0.0342 to 0.342 µM) | < 3.15 |  |  |
| CC(NC(=O)c1ccc2cnccc2n1)c1ccccc1 (centres unmarked) [compound #17, [1,6]naphthyridine-2-carboxylic acid (1-phenyl-ethyl) amide] | 0.1 to 1 (≈ 0.361 to 3.61 µM) | 25 to 50 (≈ 90.1 to 180 µM) |  |  |
| COc1ccccc1CNC(=O)c1ccc2cncc(Br)c2n1 [compound #35, 8-bromo-[1,6]naphthyridine-2-carboxylic acid (2-methoxybenzylamine)] | ~0.01 (≈ 0.0269 µM) | ~12.5 (≈ 33.6 µM) |  |  |
| CSc1ccccc1CNC(=O)c1ccc2cnccc2n1 [compound #21, N-(2-methylthiobenzyl)-2-[1,6]naphthyridine carboxamide] | 1 to 10 (≈ 3.23 to 32.3 µM) | ~50 (≈ 162 µM) |  |  |
| CC(C)Oc1ccccc1NC(=O)Nc1ccc2cnccc2n1 [compound #46, 1-(2-iso-propoxy-phenyl)-3-[1,6]naphthyridin-2-yl-urea] | ~0.01 (≈ 0.031 µM) | ~25 (≈ 77.6 µM) |  |  |
| CC(C)Oc1ccccc1CNC(=O)c1ccc2cncc(-c3ccccn3)c2n1 [compound 57, 8-(2-pyridyl)-[1,6]naphthyridine-2-carboxylic acid (2-isopropoxybenzylamine)] | 0.1 to 1 (≈ 0.251 to 2.51 µM) | 6 to 12.5 (≈ 15.1 to 31.4 µM) |  |  |
| CCNc1ccccc1CNC(=O)c1ccc2cncc(Br)c2n1 [compound #33, 8-bromo-[1,6]naphthyridine-2-carboxylic acid (2-N-ethylaminobenzylamine)] | < 0.01 | 6.25 to 12.5 (≈ 16.2 to 32.4 µM) |  |  |
| COC(=O)c1ccccc1CNC(=O)c1ccc2cnccc2n1 [compound #23, N-(2-methoxycarbonylbenzyl)-2-(1,6)naphthyridinecarboxamide] | < 5 | > 100 |  |  |

| SMILES | IC50 (HCMV virus; [2]) [mg/L] | CC50 at 48 h [1] [mg/L] | IC50 (HCMV virus; Human betaherpesvirus 5, positive control tested in tandem with the compounds, plaque reduction assay) [mg/L] | CC50 ([1]; positive control tested in tandem with the compounds, value varied between runs) [mg/L] |
| --- | --- | --- | --- | --- |
| O=C(NCc1ccc(Br)cc1)c1ccc2cnccc2n1 [compound #3, N-(4-bromobenzyl)-2-(1,6)naphthyridi necarboxamide] | 10 to 50 (≈ 29.2 to 146 µM) | 10 to 50 (≈ 29.2 to 146 µM) |  |  |
| O=C(N[C@@H]1C[C@H]1c1ccccc1)c1ccc2cnccc2n1 (relative stereo) [compound #15, [1,6]naphthyridine-2-carboxylic acid (trans-2-phenyl-cyclopropyl)-amide] | 1 to 10 (≈ 3.46 to 34.6 µM) | ~25 (≈ 86.4 µM) |  |  |
| CCCCNC(=O)Nc1ccc2cnccc2n1 [compound #53, 1-butyl-3-[1,6]naphthyridin-2-yl-urea] | 0.1 to 1 (≈ 0.409 to 4.09 µM) | 2.5 to 5 (≈ 10.2 to 20.5 µM) |  |  |
| CC(C)Oc1ccccc1CNC(=O)c1ccc2cncc(Br)c2n1 [compound #34, 8-bromo-[1,6]naphthyridine-2-carboxylic acid (2-isopropoxybenzylamine)] | 0.1 to 1 (≈ 0.25 to 2.5 µM) | ~12.5 (≈ 31.2 µM) |  |  |
| O=C(NCc1ccccc1F)c1ccc2cnccc2n1 [compound #7, N-(2-fluorobenzyl)-2-(1,6)naphthyridinecarboxamide] | < 5 | ~100 (≈ 356 µM) |  |  |
| CC(C)Oc1ccccc1CNC(=S)c1ccc2cnccc2n1 [compound #40, [1,6]Naphthyridine-2-thiocarboxylic acid-2-isopropoxybenzylamine] | 0.1 to 1 (≈ 0.296 to 2.96 µM) | 12.5 to 25 (≈ 37 to 74.1 µM) |  |  |
| Cc1ccccc1NC(=O)Nc1ccc2cnccc2n1 [compound 56, 1-(2-methyl-phenyl)-3-[1,6]naphthyridin-2-yl-urea] |  | > 100 |  |  |
| COc1cccc(CNC(=O)c2ccc3cnccc3n2)c1 [compound #12, N-(3-methoxybenzyl)-2-(1,6)naphthyridinecarboxamide] | < 5 | > 100 |  |  |
| Nc1cccc(F)c1CNC(=O)c1ccc2cnccc2n1 [compound #16, N-(2-amino-6-fluorobenzyl)-2-[1,6]naphthyridinecarboxamide] | 1 to 10 (≈ 3.37 to 33.7 µM) | ~25 (≈ 84.4 µM) |  |  |
| O=C(NCc1ccccc1Br)c1ccc2cnccc2n1 [compound #5, N-(2-bromobenzyl)-2-(1,6)naphthyridinecarboxamide] | 0.5 to 1 (≈ 1.46 to 2.92 µM) | > 100 |  |  |
| O=C(NCc1ccccc1C(F)(F)F)c1ccc2cnccc2n1 [compound #13, N-(2-trifluoromethylbenzyl)-2-(1,6)naphthyridinecarboxamide] | < 5 | > 100 |  |  |
| COc1cccc(OC)c1CNC(=O)c1ccc2cnccc2n1 [compound #14, N-(2,6-dimethoxybenzyl)-2-(1,6)naphthyridinecarboxamide] | < 5 | > 100 |  |  |
| CC(C)(C)OC(=O)NCCCCNC(=O)Nc1ccc2cnccc2n1 [compound #48, 1-(N-boc-4-aminobutyl)-3-[1,6]naphthyridin-2-yl-urea] | 0.1 to 1 (≈ 0.278 to 2.78 µM) | 3.15 to 6.25 (≈ 8.76 to 17.4 µM) |  |  |
| O=C(NCC1CCCCC1)c1ccc2cnccc2n1 [compound #19] | 1 to 10 (≈ 3.71 to 37.1 µM) | 25 to 50 (≈ 92.8 to 186 µM) |  |  |
| O=C(NCc1ccc(Cl)cc1)c1ccc2cnccc2n1 [compound #8, N-(4-chlorobenzyl)-2-[1,6]naphthyridinecarboxamide] | 1 to 10 (≈ 3.36 to 33.6 µM) | 6.25 to 10 (≈ 21 to 33.6 µM) |  |  |
| C=CCNC(=O)c1ccc2cnccc2n1 [compound #24, (1,6)naphthyridine-2-carboxylic acid allylamide] | 5 to 10 (≈ 23.4 to 46.9 µM) | 10 to 100 (≈ 46.9 to 469 µM) |  |  |
| CC(C)Oc1ccccc1CNC(=O)Nc1ccc2cnccc2n1 [compound #47, 1-(2-iso-propoxybenzyl)-3-[1,6]naphthyridin-2-yl-urea] | 0.01 to 0.1 (≈ 0.0297 to 0.297 µM) | 25 to 50 (≈ 74.3 to 149 µM) |  |  |
| Cc1ccccc1CNC(=O)c1ccc2cnccc2n1 [compound #1, N-(2-methylbenzyl)-2-(1,6)naphthyridinecarboxamide] | ~1 (≈ 3.61 µM) | 50 to 75 (≈ 180 to 270 µM) |  |  |
